Experimental data as given in patent publication US20220229068A1, “DETECTION OF PROTEIN TO PROTEIN INTERACTIONS” (THE GOVERNING COUNCIL OF THE UNIVERSITY OF TORONTO, priority 2019, published 2022).

Tested on: MAPK1/ELK1 interaction
Assay: SIMPL kinase/substrate interactions (ELISA and Western blot)
Format: cell-based, human
Conditions: kinase-IN / substrate-IC, stimulation
Method: Cell culture and treatment. HEK 293 and HeLa cell lines were generous gifts from Dr. J. Moffat. HEK 293 Flp-In T-Rex cell line was a generous gift from Dr. A. C. Gingras. These cells were grown in DMEM supplemented with 10% fetal calf serum (Life Technologies). PC9 cell line was a generous gift from Dr. P. Jannes and they were grown in RPMI 1640 medium supplemented with 10% fetal calf serum. For ELISA assay, cells were seeded in 96 well (Sarstedt AG & Co) or 384 well plates (Greiner Bio-One) with 15,000 (96 well) or 5,000 (384 well) cells per well. Cells were transfected with various plasmids with polyethylenimine (PEI) Max (Polysciences). Expression in HEK 293 Flp-In T-Rex cells was induced by treating the cells with tetracycline (1 μg/ml) for 6-16 hrs. […] Stable cell lines were created according to the manual of Flp-In T-REx (Invitrogen). Briefly, plasmid containing both bait and prey DNA and pOG44 plasmid (1:10 ratio) were cotransfected into HEK 293 Flp-In T-Rex cells.
Western blot analysis and immunoprecipitation. Cells were lysed in buffer H (Triton X 100 1%, β-glycerophosphate pH7.3 50 mM, EGTA 1.5 mM, EDTA 1 mM, orthovanadate 0.1 mM, DTT 1 mM supplemented with protease inhibitors (Roche)). […]
ELISA. […] The plate was washed 3 times with PBST followed by chemiluminescence reading using SuperSignal ELISA Pico substrate (ThermoFisher). […]

## Tetradecanoylphorbol acetate [TPA]
  MAPK1/ELK1 interaction after MAPK1 activation: enhanced MAPK1/ELK1 interaction
